# How the values were obtained:
# [1] = Ratio of drug level in liver to plasma of monkey; format: ADME, tissue-based, Macaca mulatta; conditions: rhesus monkey
# [2] = Inhibition of HCV6 NS3 protease; set-up: species or system Hepatitis C virus genotype 6
# [3] = Inhibition of HCV4 NS3 protease; set-up: species or system Hepatitis C virus genotype 4
# [4] = Inhibition of HCV5 NS3 protease; set-up: species or system Hepatitis C virus genotype 5
# [5] = Inhibition of HCV 2b NS3 protease; set-up: species or system Hepatitis C virus subtype 2b
# [6] = Inhibition of HCV 3a NS3 protease; set-up: species or system Hepatitis C virus subtype 3a
# [7] = Inhibition of HCV 1a NS3 protease; set-up: species or system Hepatitis C virus subtype 1a
# Hepatitis C virus [8] = test: Inhibition of HCV 1b NS3 protease; set-up: species or system Hepatitis C virus subtype 1b; conditions: Hepatitis C virus
# in vivo [9] = conditions: rat, liver/plasma
# Description: Ratio of drug level in liver to plasma of rat
# Hepatitis C virus [10] = test: microbe, parasite or virus in culture
# Description: Antiviral activity against HCV by cell based replicon assay
# [11] = molecular target: T1, Growth factor receptor-bound protein 2 (Homo sapiens, UniProt P62993); test: Inhibition of SH2 domain of GRB2 in human MDA-MB-453 cells; format: cell-based
# [12] = molecular target: T1, Growth factor receptor-bound protein 2; test: Inhibition of SH2 domain of GRB2 in human MDA-MB-231 cells; format: cell-based
# [13] = molecular target: T1, Growth factor receptor-bound protein 2; test: Inhibition of SH2 domain of GRB2 by whole cell based assay
# [14] = molecular target: C-X-C chemokine receptor type 4 (Homo sapiens, UniProt P61073); test: Antagonist activity at CXCR4; format: functional
# [15] = molecular target: High affinity choline transporter 1 (Homo sapiens, UniProt Q9GZV3); test: Antagonist activity at CHT1; format: functional
# [16] = Antagonist activity at GABA-gated chloride channel; format: functional
# Adenosine receptor A3 = Adenosine receptor A3 (Homo sapiens, UniProt P0DMS8); test: Antagonist activity at adenosine A3 receptor; format: functional
# D(1A) dopamine receptor = D(1A) dopamine receptor (Homo sapiens, UniProt P21728); test: Antagonist activity at dopamine D1 receptor; format: functional
# [17] = Protein binding in human plasma; format: ADME, cell-free; conditions: read-out: PPB (converted)
# [18] = Half life in monkey; format: ADME, organism-based, Macaca mulatta; conditions: rhesus monkey, in vivo
# [19] = Half life in rat; format: ADME, organism-based; conditions: in vivo
# [20] = Half life in dog; format: ADME, organism-based, Canis lupus familiaris; conditions: in vivo
# [21] = Oral bioavailability in monkey; format: ADME, organism-based, Macaca mulatta; conditions: rhesus monkey, in vivo
# [22] = Oral bioavailability in dog; format: ADME, organism-based, Canis lupus familiaris; conditions: in vivo
# [23] = Oral bioavailability in rat; format: ADME, organism-based; conditions: in vivo
# [24] = molecular target: High affinity nerve growth factor receptor (Homo sapiens, UniProt P04629); test: Inhibition of TrkA assessed as inhibition of mAb5C3 binding
# [25] = Selectivity ratio of human elastase to HCV NS3 protease
# [26] = molecular target: T2, Growth hormone secretagogue receptor type 1 (Homo sapiens, UniProt Q92847); test: Agonist activity at ghrelin receptor by cell based assay; format: functional
# [27] = molecular target: T2, Growth hormone secretagogue receptor type 1; test: Agonist activity at ghrelin receptor; format: functional
# in vivo [28] = conditions: rat
# Hepatitis C virus [29] = test: microbe, parasite or virus in culture; conditions: genotype 1b
# Description: Antiviral activity against HCV1b by cell based replicon assay
# Hepatitis C virus [30] = test: microbe, parasite or virus in culture; conditions: subtype 1a
# Description: Antiviral activity against HCV1a by cell based replicon assay
# [31] = Oral bioavailability in rhesus monkey; format: ADME, organism-based, Macaca mulatta; conditions: in vivo
# Renin = molecular target: T3, Renin (Homo sapiens, UniProt P00797); test: Inhibition of renin
# T3 sequence (P00797 whole entry): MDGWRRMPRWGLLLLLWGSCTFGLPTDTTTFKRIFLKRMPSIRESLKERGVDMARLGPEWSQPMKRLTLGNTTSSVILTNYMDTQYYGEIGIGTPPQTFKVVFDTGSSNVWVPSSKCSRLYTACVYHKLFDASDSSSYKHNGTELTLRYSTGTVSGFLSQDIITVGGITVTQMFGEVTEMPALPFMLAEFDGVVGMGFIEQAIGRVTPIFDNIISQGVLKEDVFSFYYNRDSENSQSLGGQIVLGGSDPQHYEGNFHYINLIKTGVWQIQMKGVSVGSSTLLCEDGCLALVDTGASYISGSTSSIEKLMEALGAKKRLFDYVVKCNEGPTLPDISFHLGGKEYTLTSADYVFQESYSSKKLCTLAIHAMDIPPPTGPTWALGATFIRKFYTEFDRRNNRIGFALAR
# [32] = molecular target: T2, Growth hormone secretagogue receptor type 1; test: Antagonist activity at ghrelin receptor assessed as inhibition of ghrelin-induced Ca2+ release by cell based assay; format: functional
# [33] = molecular target: Cyclin-dependent kinase 1 (Homo sapiens, UniProt P06493); test: Inhibition of CDK1
# [34] = molecular target: Cyclin-dependent kinase 2 (Homo sapiens, UniProt P24941); test: Inhibition of CDK2
# MCF7 = test: cells; conditions: Homo sapiens
# Description: Antiproliferative activity against human MCF7 cells
# Beta-secretase 1 = Beta-secretase 1 (Homo sapiens, UniProt P56817); test: Inhibition of BACE1 by cell based assay
# Sequence of Beta-secretase 1 (P56817 whole entry): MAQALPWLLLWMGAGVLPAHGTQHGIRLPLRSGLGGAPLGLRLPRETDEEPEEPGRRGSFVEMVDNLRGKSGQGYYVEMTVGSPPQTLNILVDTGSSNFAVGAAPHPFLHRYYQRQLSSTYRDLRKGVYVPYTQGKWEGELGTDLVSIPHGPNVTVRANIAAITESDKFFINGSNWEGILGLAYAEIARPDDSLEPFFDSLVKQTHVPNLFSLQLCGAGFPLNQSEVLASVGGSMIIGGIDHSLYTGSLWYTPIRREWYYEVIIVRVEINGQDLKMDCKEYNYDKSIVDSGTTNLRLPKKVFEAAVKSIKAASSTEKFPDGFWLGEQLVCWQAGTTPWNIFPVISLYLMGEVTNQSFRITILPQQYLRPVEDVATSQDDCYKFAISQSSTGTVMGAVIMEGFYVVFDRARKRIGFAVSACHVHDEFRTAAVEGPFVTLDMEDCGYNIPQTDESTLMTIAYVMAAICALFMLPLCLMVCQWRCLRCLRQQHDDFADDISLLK
# T2 sequence (Q92847 whole entry): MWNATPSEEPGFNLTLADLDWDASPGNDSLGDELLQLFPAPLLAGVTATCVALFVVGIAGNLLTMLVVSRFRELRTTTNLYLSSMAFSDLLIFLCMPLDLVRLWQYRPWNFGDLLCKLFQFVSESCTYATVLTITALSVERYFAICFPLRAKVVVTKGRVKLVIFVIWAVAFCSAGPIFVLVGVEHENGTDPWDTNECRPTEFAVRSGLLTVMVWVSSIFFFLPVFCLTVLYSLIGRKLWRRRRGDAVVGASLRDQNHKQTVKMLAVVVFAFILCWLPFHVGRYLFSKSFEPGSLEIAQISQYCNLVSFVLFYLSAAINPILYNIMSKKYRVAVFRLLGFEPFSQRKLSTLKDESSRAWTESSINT
# T1 sequence (P62993 whole entry, the tested form may be a part): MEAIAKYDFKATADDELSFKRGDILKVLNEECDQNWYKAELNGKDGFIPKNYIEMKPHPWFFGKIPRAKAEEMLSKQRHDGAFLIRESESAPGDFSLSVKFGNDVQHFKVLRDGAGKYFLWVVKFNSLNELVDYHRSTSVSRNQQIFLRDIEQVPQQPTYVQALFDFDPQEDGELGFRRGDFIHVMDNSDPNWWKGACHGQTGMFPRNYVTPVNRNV
# Sequence of Adenosine receptor A3 (P0DMS8 whole entry): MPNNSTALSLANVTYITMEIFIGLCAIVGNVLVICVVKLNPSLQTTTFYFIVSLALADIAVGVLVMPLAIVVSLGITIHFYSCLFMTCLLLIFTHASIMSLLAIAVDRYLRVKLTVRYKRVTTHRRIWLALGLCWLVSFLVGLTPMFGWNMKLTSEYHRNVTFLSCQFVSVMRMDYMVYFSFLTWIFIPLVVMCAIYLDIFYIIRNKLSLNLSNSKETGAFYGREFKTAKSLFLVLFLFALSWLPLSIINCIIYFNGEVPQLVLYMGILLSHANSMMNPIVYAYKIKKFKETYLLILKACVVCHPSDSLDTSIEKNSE
# Sequence of High affinity choline transporter 1 (Q9GZV3 whole entry): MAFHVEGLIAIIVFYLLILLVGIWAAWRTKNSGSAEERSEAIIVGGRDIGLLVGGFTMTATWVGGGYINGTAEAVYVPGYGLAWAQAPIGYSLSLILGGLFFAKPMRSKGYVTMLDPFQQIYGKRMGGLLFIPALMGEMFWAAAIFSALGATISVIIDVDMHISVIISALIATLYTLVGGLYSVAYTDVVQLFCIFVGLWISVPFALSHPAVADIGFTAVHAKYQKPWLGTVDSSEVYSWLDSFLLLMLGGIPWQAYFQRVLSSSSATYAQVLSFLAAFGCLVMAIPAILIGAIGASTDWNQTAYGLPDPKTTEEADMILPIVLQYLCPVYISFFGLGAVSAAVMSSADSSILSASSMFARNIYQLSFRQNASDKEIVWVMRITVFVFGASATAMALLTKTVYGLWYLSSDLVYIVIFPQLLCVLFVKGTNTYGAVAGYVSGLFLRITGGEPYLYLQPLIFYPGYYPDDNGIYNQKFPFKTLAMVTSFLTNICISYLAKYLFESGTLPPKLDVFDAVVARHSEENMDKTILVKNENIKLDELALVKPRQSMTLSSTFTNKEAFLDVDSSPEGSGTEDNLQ
# Sequence of D(1A) dopamine receptor (P21728 whole entry): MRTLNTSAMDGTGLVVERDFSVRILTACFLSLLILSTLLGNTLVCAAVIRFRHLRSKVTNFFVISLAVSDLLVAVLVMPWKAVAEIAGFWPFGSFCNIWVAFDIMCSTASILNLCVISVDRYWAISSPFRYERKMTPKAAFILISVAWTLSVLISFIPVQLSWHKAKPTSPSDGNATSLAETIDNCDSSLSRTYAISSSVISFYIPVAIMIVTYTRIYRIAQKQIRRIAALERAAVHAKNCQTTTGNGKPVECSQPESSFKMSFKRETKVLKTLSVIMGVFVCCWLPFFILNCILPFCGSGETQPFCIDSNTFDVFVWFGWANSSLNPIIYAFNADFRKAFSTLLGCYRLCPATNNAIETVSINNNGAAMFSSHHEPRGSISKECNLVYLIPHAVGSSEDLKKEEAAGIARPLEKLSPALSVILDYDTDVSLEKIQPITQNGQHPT
# Sequence of Cyclin-dependent kinase 1 (P06493 whole entry): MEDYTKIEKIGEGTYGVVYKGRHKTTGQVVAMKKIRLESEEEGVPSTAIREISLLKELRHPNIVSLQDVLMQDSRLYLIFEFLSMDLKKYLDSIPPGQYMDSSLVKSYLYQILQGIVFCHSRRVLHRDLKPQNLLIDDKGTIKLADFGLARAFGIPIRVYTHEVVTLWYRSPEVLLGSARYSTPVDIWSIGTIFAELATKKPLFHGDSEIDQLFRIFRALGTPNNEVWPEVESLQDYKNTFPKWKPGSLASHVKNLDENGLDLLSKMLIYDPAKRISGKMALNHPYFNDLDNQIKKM
# Sequence of C-X-C chemokine receptor type 4 (P61073 whole entry): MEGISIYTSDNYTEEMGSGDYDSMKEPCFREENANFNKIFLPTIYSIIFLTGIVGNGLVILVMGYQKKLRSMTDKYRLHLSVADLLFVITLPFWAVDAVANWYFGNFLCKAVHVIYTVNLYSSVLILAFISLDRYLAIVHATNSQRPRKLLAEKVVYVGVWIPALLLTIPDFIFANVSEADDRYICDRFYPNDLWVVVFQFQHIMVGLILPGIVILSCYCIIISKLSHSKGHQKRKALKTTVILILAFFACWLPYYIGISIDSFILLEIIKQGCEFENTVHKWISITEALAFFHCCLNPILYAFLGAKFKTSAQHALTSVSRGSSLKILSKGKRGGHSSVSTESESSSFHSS
# Sequence of High affinity nerve growth factor receptor (P04629 whole entry): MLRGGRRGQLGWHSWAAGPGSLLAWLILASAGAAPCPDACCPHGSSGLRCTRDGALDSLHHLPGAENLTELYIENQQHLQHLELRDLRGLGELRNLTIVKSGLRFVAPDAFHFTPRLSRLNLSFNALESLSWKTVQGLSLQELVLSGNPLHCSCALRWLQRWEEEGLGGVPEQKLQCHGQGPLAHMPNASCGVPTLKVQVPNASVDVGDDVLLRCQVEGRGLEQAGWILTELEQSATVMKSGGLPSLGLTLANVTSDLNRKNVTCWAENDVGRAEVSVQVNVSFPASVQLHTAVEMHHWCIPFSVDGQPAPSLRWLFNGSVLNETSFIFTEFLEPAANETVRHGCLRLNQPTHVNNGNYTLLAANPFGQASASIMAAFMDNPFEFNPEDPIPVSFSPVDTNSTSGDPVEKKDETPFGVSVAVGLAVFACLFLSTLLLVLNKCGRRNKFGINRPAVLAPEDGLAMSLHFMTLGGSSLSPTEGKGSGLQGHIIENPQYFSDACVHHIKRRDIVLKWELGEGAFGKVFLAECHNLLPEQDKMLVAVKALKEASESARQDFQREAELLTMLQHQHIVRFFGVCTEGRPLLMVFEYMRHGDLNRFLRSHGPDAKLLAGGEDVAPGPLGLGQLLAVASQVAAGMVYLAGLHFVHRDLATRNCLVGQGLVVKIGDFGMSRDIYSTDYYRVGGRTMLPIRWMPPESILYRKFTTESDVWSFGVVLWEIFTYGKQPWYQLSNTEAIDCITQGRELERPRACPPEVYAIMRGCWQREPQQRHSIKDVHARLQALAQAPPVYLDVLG
structure (smiles),measurement,setting,value
CC(C)(C)OC(=O)N[C@H]1CCCCC/C=C\[C@@H]2C[C@@]2(C(=O)NS(=O)(=O)C2CC2)NC(=O)[C@@H]2C[C@@H](OC(=O)N3Cc4cccc(F)c4C3)CN2C1=O [DANOPREVIR],Kp,[1],100
same,IC50,[2],0.2 nM
same,IC50,[3],0.2 nM
same,IC50,[4],0.2 nM
same,IC50,[5],0.2 nM
same,IC50,[6],0.2 nM
same,IC50,[7],0.2 nM
same,IC50,Hepatitis C virus [8],0.2 nM
same,Kp,in vivo [9],10
same,EC50,Hepatitis C virus [10],1.8 nM
Cc1ccc2c(ccn2C[C@@H]2C/C=C/[C@H](c3ccc(CP(=O)(O)O)cc3)[C@H](CC(=O)O)C(=O)NC3(CCCCC3)C(=O)N[C@@H](CC(N)=O)C(=O)NC2)c1,IC50,[11],630 nM
same,IC50,[12],> 10000 nM
same,IC50,[13],≤ 10 nM
c1ccc(CNCc2ccc(CN3CCCNCCNCCCNCC3)cc2)nc1,IC50,[14],12.4 nM
Cn1c2cnc1OCC/C=C\CCCCOc1ccccc1-2,IC50,[15],3200 nM
same,IC50,[16],7200 nM
same,IC50,Adenosine receptor A3,850 nM
same,IC50,D(1A) dopamine receptor,1100 nM
COc1ccc2c(O[C@@H]3C[C@H]4C(=O)N[C@]5(C(=O)O)C[C@H]5/C=C\CCCCC[C@H](NC(=O)OC5CCCC5)C(=O)N4C3)cc(-c3csc(NC(C)C)n3)nc2c1,fraction unbound,[17],0.009
same,half-life,[18],7 h
same,half-life,[19],0.8 h
same,half-life,[20],4.2 h
same,bioavailability,[21],7%
same,bioavailability,[22],36%
same,bioavailability,[23],13%
same,Ki,[7],0.3 nM
NCCCC[C@@H]1NC(=O)c2cc([N+](=O)[O-])ccc2NCc2ccc(C(N)=O)cc2NC(=O)[C@H](CO)NC1=O,IC50,[24],4000 nM
CC(C)(C)NC(=O)N[C@H](C(=O)N1C[C@H]2[C@@H]([C@H]1C(=O)NC(CC1CCC1)C(=O)C(N)=O)C2(C)C)C(C)(C)C (stereo partly specified),Selectivity ratio,[25],2800
CC[C@H](C)[C@@H]1NCCOc2ccccc2CCCNC(=O)[C@@H](Cc2ccc(Cl)cc2)NC(=O)[C@@H](C)N(C)C1=O,EC50,[26],14 nM
same,Ki,[27],1 nM
COc1ccc2c(O[C@@H]3C[C@H]4C(=O)N[C@]5(C(=O)NS(=O)(=O)C6CC6)C[C@H]5/C=C\CCCCN(C)C(=O)[C@@H]4C3)cc(-c3nc(C(C)C)cs3)nc2c1C,half-life,[19],4 h
same,half-life,[20],5.1 h
same,bioavailability,[22],100%
same,Ki,[7],0.5 nM
same,clearance,in vivo [28],38 mL/min/kg
same,Kp,in vivo [9],> 35
same,EC50,Hepatitis C virus [29],25 nM
same,EC50,Hepatitis C virus [30],28 nM
O=C1CCC[C@H](CN2CCOCC2)OC(=O)[C@H](O)[C@H](CC2CCCCC2)NC(=O)[C@@H](NC(=O)[C@H](Cc2ccccc2)N[C@@H]2CN3CCC2CC3)CO1,bioavailability,[31],1%
same,IC50,Renin,1.3 nM
CC[C@H](C)[C@@H]1NCCOc2ccccc2CCCNC(=O)[C@@H](Cc2ccccc2)NC(=O)[C@H](CO)N(C)C1=O,IC50,[32],500 nM
same,Ki,[27],100 nM
N#CCNc1nc(Nc2ccccc2)ncc1Br,IC50,[33],100 nM
same,IC50,[34],100 nM
same,IC50,MCF7,4000 nM
CC(C)[C@H](NC(=O)OC(C)(C)C)C(=O)N[C@@H](C)C(=O)N[C@@H](Cc1ccccc1)[C@@H](O)C[C@@H](C)C(=O)N[C@H](C(=O)NCc1ccncc1)C(C)C,IC50,Beta-secretase 1,2100 nM

# — ChEMBL document CHEMBL2203227, “Macrocycles are great cycles: applications, opportunities, and challenges of synthetic macrocycles in drug discovery” (J Med Chem, 2011)
